Test results: patent US12162893B2 (Erasca, Inc., priority 2020, dated 2024)

Target: T1, mutant G12C K-RAS (Homo sapiens, UniProt P01116, G12C)
T1 construct: made in house; host or cells: E. coli BL21
Assay: covalent adduct formation (CAF) with mutant G12C K-RAS
Format: binding
Set-up: CAF: unit not given here
Details: for % CAF @ 10 μM,1 h: Table 6; for % CAF (60 min): Table 1, Pyrimidone Core-Morpholine Unsubstituted
Procedure: Embodiments disclosed herein are further illustrated by the following examples in Tables 1-4 and the Examples hereinbelow. The Tables indicate the compound number, structure, the observed mass spectral molecular weight peak, and covalent adduct formation (CAF) with a mutant G12C K-RAS after 60 minutes at a concentration of 10 micromolar.

[1] = after 60 minutes at 10 micromolar

C=CC(=O)N1C[C@H](C)N(c2nc(=O)n3c4c(c(-c5ccc(F)cc5F)c(Cl)cc24)OC[C@H]3CCCN2CC3(COC3)C2)C[C@H]1C [Example 299, (3R)-3-(3-(2-oxa-6-azaspiro[3.3]heptan-6-yl)propyl)-7-((2S,5R)-4-acryloyl-2,5-dimethylpiperazin-1-yl)-9-chloro-10-(2,4-difluorophenyl)-2,3-dihydro-5H-[1,4]oxazino[2,3,4-ij]quinazolin-5-one]
% CAF @ 10 μM,1 h: 75.4%

C=CC(=O)N1C[C@H](C)N(c2nc(=O)n3c4c(c(-c5c(O)cccc5F)c(Cl)cc24)OC[C@@H]3CN(C)CC(F)(F)F)C[C@H]1C (atropisomer, axis not shown) [Example 239, (3S,10R)-7-((2S,5R)-4-acryloyl-2,5-dimethylpiperazin-1-yl)-9-chloro-10-(2-fluoro-6-hydroxyphenyl)-3-((methyl(2,2,2-trifluoroethyl)amino)methyl)-2H-[1,4]oxazino[2,3,4-ij]quinazolin-5(3H)-one]
% CAF @ 10 μM,1 h: 3%

C=CC(=O)N1C[C@H](C)N(c2nc(=O)n3c4c(c(-c5c(O)cccc5F)c(Cl)cc24)OC[C@@H]3CN2CCC(F)(F)C2)C[C@H]1C [Example 220, (3S,10R)-7-((2S,5R)-4-acryloyl-2,5-dimethylpiperazin-1-yl)-9-chloro-3-((3,3-difluoropyrrolidin-1-yl)methyl)-10-(2-fluoro-6-hydroxyphenyl)-2,3-dihydro-5H-[1,4]oxazino[2,3,4-ij]quinazolin-5-one]
% CAF @ 10 μM,1 h: 0%

C=CC(=O)N1CCN(c2c(C#N)c(=O)n3c4c(c(-c5c(O)cccc5F)c(Cl)cc24)OCC3)[C@@H](C)C1 [Example 40, (R)-7-((S)-4-acryloyl-2-methylpiperazin-1-yl)-9-chloro-10-(2-fluoro-6-hydroxyphenyl)-5-oxo-3,5-dihydro-2H-[1,4]oxazino[2,3,4-ij]quinoline-6-carbonitrile]
CAF (Table 3, Pyridone Core-Morpholine Unsubstituted, after 60 minutes at 10 micromolar): 75.5

C=CC(=O)N1C[C@H](C)N(c2nc(=O)n3c4c(c(-c5cc(Cl)ccc5F)c(Cl)cc24)OC[C@H]3CN2CCC(F)(F)C2)C[C@H]1C [Example 206, (3R)-7-((2S,5R)-4-acryloyl-2,5-dimethylpiperazin-1-yl)-9-chloro-10-(5-chloro-2-fluorophenyl)-3-((3,3-difluoropyrrolidin-1-yl)methyl)-2,3-dihydro-5H-[1,4]oxazino[2,3,4-ij]quinazolin-5-one]
% CAF @ 10 μM,1 h: 10.7%

C=CC(=O)N1C[C@H](C)N(c2nc(=O)n3c4c(c(-c5c(O)cccc5F)c(Cl)cc24)OC[C@H]3CN2CCOCC2)C[C@H]1C (atropisomer, axis not shown) [Example 210, (3R,10R)-7-((2S,5R)-4-acryloyl-2,5-dimethylpiperazin-1-yl)-9-chloro-10-(2-fluoro-6-hydroxyphenyl)-3-(morpholinomethyl)-2,3-dihydro-5H-[1,4]oxazino[2,3,4-ij]quinazolin-5-one]
% CAF @ 10 μM,1 h: 0%

C=CC(=O)N1C[C@H](C)N(c2nc(=O)n3c4c(c(-c5ccc(F)cc5F)c(Cl)cc24)O[C@@H](CCCN2CCN(C)CC2)C3)C[C@H]1C [Example 263, (2S)-7-((2S,5R)-4-acryloyl-2,5-dimethylpiperazin-1-yl)-9-chloro-10-(2,4-difluorophenyl)-2-(3-(4-methylpiperazin-1-yl)propyl)-2,3-dihydro-5H-[1,4]oxazino[2,3,4-ij]quinazolin-5-one]
% CAF @ 10 μM,1 h: 41.6%

C=CC(=O)N1C[C@H](C)N(c2nc(=O)n3c4c(c(-c5ccc(F)cc5F)c(C5CC5)cc24)OC[C@H]3CCCN2C[C@@H]3C[C@H]2CO3)C[C@H]1C [Example 323, (3R)-3-(3-((1S,4S)-2-oxa-5-azabicyclo[2.2.1]heptan-5-yl)propyl)-7-((2S,5R)-4-acryloyl-2,5-dimethylpiperazin-1-yl)-9-cyclopropyl-10-(2,4-difluorophenyl)-2,3-dihydro-5H-[1,4]oxazino[2,3,4-ij]quinazolin-5-one]
% CAF @ 10 μM,1 h: 81.1%

C=CC(=O)N1C[C@H](C)N(c2nc(=O)n3c4c(c(-c5ccc(F)cc5F)c(Cl)cc24)OC[C@H]3CCCN2CC[C@H](F)C2)C[C@H]1C [Example 330, (3R)-7-((2S,5R)-4-acryloyl-2,5-dimethylpiperazin-1-yl)-9-chloro-10-(2,4-difluorophenyl)-3-(3-((S)-3-fluoropyrrolidin-1-yl)propyl)-2,3-dihydro-5H-[1,4]oxazino[2,3,4-ij]quinazolin-5-one]
% CAF @ 10 μM,1 h: 91.7%

C=CC(=O)N1C[C@H](C)N(c2nc(=O)n3c4c(c(-c5ccc(F)cc5F)c(Cl)cc24)OC[C@H]3CCCN2CC3CCC(C2)O3)C[C@H]1C [Example 312, (3R)-3-(3-(8-oxa-3-azabicyclo[3.2.1]octan-3-yl)propyl)-7-((2S,5R)-4-acryloyl-2,5-dimethylpiperazin-1-yl)-9-chloro-10-(2,4-difluorophenyl)-2,3-dihydro-5H-[1,4]oxazino[2,3,4-ij]quinazolin-5-one]
% CAF @ 10 μM,1 h: 68.2%

C=CC(=O)N1C[C@H](C)N(c2nc(=O)n3c4c(c(-c5cccc6ccccc56)c(Cl)cc24)OC[C@H]3CN2CCN(C)CC2)C[C@H]1C (atropisomer, axis not shown) [Example 295, (3R,10R)-7-((2S,5R)-4-acryloyl-2,5-dimethylpiperazin-1-yl)-9-chloro-3-((4-methylpiperazin-1-yl)methyl)-10-(naphthalen-1-yl)-2H-[1,4]oxazino[2,3,4-ij]quinazolin-5(3H)-one]
% CAF @ 10 μM,1 h: 58.4%

C=CC(=O)N1C[C@H](C)N(c2nc(=O)n3c4c(c(-c5ccc(F)cc5F)c(Cl)cc24)OCC3)C[C@H]1C [Example 11, 7-((2S,5R)-4-acryloyl-2,5-dimethylpiperazin-1-yl)-9-chloro-10-(2,4-difluorophenyl)-2H-[1,4]oxazino[2,3,4-ij]quinazolin-5(3H)-one]
% CAF (60 min) [1]: 68%

C=CC(=O)N1C[C@H](C)N(c2nc(=O)n3c4c(c(-c5ccc(F)cc5F)c(Cl)cc24)OC[C@H]3CCCN2CCOCC2)C[C@H]1C [Example 218, (3R)-7-((2S,5R)-4-acryloyl-2,5-dimethylpiperazin-1-yl)-9-chloro-10-(2,4-difluorophenyl)-3-(3-morpholinopropyl)-2,3-dihydro-5H-[1,4]oxazino[2,3,4-ij]quinazolin-5-one]
% CAF @ 10 μM,1 h: 95.6%

C=CC(=O)N1C[C@H](C)N(c2nc(=O)n3c4c(c(-c5cc(F)cc(Cl)c5)ccc24)OCC3)C[C@H]1C [Example 16, 7-((2S,5R)-4-acryloyl-2,5-dimethylpiperazin-1-yl)-10-(3-chloro-5-fluorophenyl)-2H-[1,4]oxazino[2,3,4-ij]quinazolin-5(3H)-one]
% CAF (60 min) [1]: 0%

C=CC(=O)N1C[C@H](C)N(c2nc(=O)n3c4c(c(-c5ccc(F)cc5F)c(Cl)cc24)OC[C@H]3CN2C[C@H]3CC[C@@H](C2)N3C2COC2)C[C@H]1C [Example 291, (3R)-7-((2S,5R)-4-acryloyl-2,5-dimethylpiperazin-1-yl)-9-chloro-10-(2,4-difluorophenyl)-3-(((1R,5S)-8-(oxetan-3-yl)-3,8-diazabicyclo[3.2.1]octan-3-yl)methyl)-2H-[1,4]oxazino[2,3,4-ij]quinazolin-5(3H)-one]
% CAF @ 10 μM,1 h: 88.8%
